Data from patent US20060188945A1, “Screening methods” (priority 2004, published 2006).

Key:
full-length human GHR = target: T1, full-length human GHR (Homo sapiens, UniProt P10912); assay: Immunofluorescence of subcellular distribution and internalization of growth hormone receptor; assay type: cell-based; details: WRL-68 cells transfected with human GHR; immunofluorescence using Mab263; 10-100 nM GH or 2 μM BVT.3693
T1 construct: plasmid DNA encoding the full-length human GHR; expressed in transfected cells; host or cells: WRL-68 cells
T1 sequence (P10912 19-638): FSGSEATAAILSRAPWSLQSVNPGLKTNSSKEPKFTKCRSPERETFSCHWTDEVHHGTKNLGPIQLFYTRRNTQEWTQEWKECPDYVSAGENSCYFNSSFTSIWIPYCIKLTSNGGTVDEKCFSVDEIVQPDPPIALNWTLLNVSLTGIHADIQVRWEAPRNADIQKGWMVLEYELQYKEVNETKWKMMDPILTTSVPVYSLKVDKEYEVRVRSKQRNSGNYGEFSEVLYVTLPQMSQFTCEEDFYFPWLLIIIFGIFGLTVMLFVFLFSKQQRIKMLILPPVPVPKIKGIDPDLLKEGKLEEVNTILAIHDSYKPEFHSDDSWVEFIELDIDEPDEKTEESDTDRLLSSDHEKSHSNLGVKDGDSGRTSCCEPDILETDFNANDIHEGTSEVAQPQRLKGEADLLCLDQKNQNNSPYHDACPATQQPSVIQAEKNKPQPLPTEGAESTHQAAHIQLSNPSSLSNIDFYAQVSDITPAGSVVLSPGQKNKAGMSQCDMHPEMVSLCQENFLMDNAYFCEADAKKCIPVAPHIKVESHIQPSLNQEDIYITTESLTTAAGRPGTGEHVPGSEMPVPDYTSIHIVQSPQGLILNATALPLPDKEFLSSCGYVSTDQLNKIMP
Description: WRL-68 cells were cultured in EMEM medium with NaHCO3 (Statens Veterinärmedicinska Anstalt, Uppsala, Sweden), supplemented with 10% fetal bovine serum (FBS), 2% L-Glutamine, 1% Pyruvate, and non-essential acids (NEA), all from GIBCO, at 37° C. in 5% CO2.
Transfection: Cells were transfected with plasmid DNA encoding the full-length human GHR (pMB 1288, 2 μg/μl) using DOTAP Liposomal Transfection Reagent (Roche), according to the manufacturers instructions. WRL-68 cells in T75 flasks were transfected with 10 μg DNA for each flask. 5 μl (10 μg) DNA was diluted with 250 μl OPTIMEM1 medium (GIBCO), and mixed with 75 μl DOTAP reagent diluted in 175 μl OPTIMEM1 medium. The mixture was incubated for 10 minutes and then mixed with 10 ml OPTIMEM1 medium. Cells were washed once and then incubated for 4 hours with the DNA/DOTAP transfection mix. The transfection reagents were removed and fresh culture medium was added. Cells were re-seeded into new culture dishes the following day.
Stimulation: 3×10^4 cells were seeded on chamber slides in eight-well dishes and grown for two days. […] After treatment, the cells were rinsed twice with ice-cold PBS. Fixation was performed with 4% paraformaldehyde for 20 minutes.
Staining with rabbit antiserum: The chamber slides were washed twice by immersion of the slides in a container with 0.05% TBS-Tween. […]

[1] = target: T2, membrane bound GHR on a human osteosarcoma cell line (Homo sapiens, UniProt P10912); assay: DELFIA assay for determination of receptor on cell surface; assay type: cell-based; details: stimulated for 1.5 hours with increasing concentrations, Eu-labeled anti GH-rec antibody BB117, FIG. 2
T2 construct: endogenous in cells
T2 sequence (P10912 19-638): T1 sequence (P10912 19-638)
Description: The following method was used to quantify the number of GH receptors on the cell surface after stimulation with different compounds.
On day 1, WRL-68 cells were seeded at a density of 15,000 cells per well and incubated under standard cell culture conditions.
On day 3, cells were washed with serum-free medium and incubated 1 hour prior to stimulation with a dose-response of BVT.3693. The cells were then washed with ice-cold PBS (Dulbecco PBS-A) and fixated with 4% paraformaldehyde on ice for 20 minutes. Thereafter the plates were washed with PBS and stored in a refrigerator until used. […]
On day 4, the plates were washed with PBS using a DELFIA plate washer. […] The amount of Europium fluorescence was determined by reading in a Victor analysis instrument.
To correlate the amount of Europium fluorescence measured (which fluorescence is proportional to the number of GH receptors present on the cell surface) to the number of cells attached to the bottom of the well after all the washing steps, we developed an internal standard. […] Instead, we developed a method to quantify the amount of DNA in the wells as an internal standard. […]
10,000 cells per well were seeded the day before stimulation. […] Receptor quantification was performed using an Eu-labeled anti GH-rec antibody BB117, as described above (simplified protocol).

amount of GHR on the surface of the cells [1]: dose dependent reduction
SMILES: Cc1ccc(S(N)(=O)=O)cc1NC(=O)c1ccc(Br)o1 [BVT.3693, N-[5-(aminosulfonyl)-2-methylphenyl]-5-bromo-2-furamide]
subcellular distribution of GHR after stimulation (full-length human GHR): intracellular staining, with both a nuclear localisation and a cytoplasmic localisation of the receptor
